Measurements reported in patent US12077503B2, “Substituted cyclic amides and their use as herbicides” (FMC CORPORATION, priority 2015, dated 2024).

Columns and labels:
Format in all cases: in vivo
corn (Zea mays) [1] = test: Test G Pre-Emergence Protocol; details: Zea mays, pre-emergence, 312 h, evaluated after 13 days; for plant injury at 15.625 g/ha: 15.625 g ai/ha; for plant injury at 15.625 g/ha / plant injury at 250 g/ha: read-out: Corn damage rating (100=total damage to plant; 0=no damage to plant); for plant injury at 62.5 g/ha: 62.5 g ai/ha, 100=total damage to plant, 0=no damage to plant, read-out: Corn damage rating; for plant injury at 250 g/ha: 250 g ai/ha
Method in brief: (§1)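 Test compound in 0.5% Tween 20 acetone/water (50:50) was applied at three rates (15.625, 62.5, 250 g/ha) to soil sown one day earlier. After 13 days plants were scored for injury, where 0 means unaffected and 100 means completely damaged.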

[2] = system: giant foxtail (Setaria faberi); test: Test G Pre-Emergence Protocol; details: Setaria faberi, pre-emergence, 312 h, evaluated after 13 days; for pest or weed control at 15.625 g/ha: 15.625 g ai/ha; for pest or weed control at 15.625 g/ha / pest or weed control at 250 g/ha: read-out: Foxtail, Giant damage rating (100=total damage to plant; 0=no damage to plant); for pest or weed control at 62.5 g/ha: 62.5 g ai/ha, 100=total damage to plant, 0=no damage to plant, read-out: Foxtail, Giant damage rating; for pest or weed control at 250 g/ha: 250 g ai/ha
Method in brief: as §1

[3] = system: ivy-leaved morning glory (Ipomoea hederacea); test: Test G Pre-Emergence Protocol; details: Ipomoea, pre-emergence, 312 h, evaluated after 13 days; for pest or weed control at 15.625 g/ha: 15.625 g ai/ha; for pest or weed control at 15.625 g/ha / pest or weed control at 250 g/ha: read-out: Morningglory, Ivy-leaved damage rating (100=total damage to plant; 0=no damage to plant); for pest or weed control at 62.5 g/ha: 62.5 g ai/ha, 100=total damage to plant, 0=no damage to plant, read-out: Morningglory, Ivy-leaved damage rating; for pest or weed control at 250 g/ha: 250 g ai/ha
Method in brief: as §1

[4] = system: barnyardgrass (Echinochloa crus-galli); test: Test G Pre-Emergence Protocol; details: Echinochloa crus-galli, pre-emergence, 312 h, evaluated after 13 days; for pest or weed control at 15.625 g/ha: 15.625 g ai/ha; for pest or weed control at 15.625 g/ha / pest or weed control at 250 g/ha: read-out: Barnyardgrass damage rating (100=total damage to plant; 0=no damage to plant); for pest or weed control at 62.5 g/ha: 62.5 g ai/ha, 100=total damage to plant, 0=no damage to plant, read-out: Barnyardgrass damage rating; for pest or weed control at 250 g/ha: 250 g ai/ha
Method in brief: as §1

[5] = system: redroot pigweed (Amaranthus retroflexus); test: Test G Pre-Emergence Protocol; details: Amaranthus retroflexus, pre-emergence, 312 h, evaluated after 13 days; for pest or weed control at 15.625 g/ha: 15.625 g ai/ha; for pest or weed control at 15.625 g/ha / pest or weed control at 250 g/ha: read-out: Pigweed, Redroot damage rating (100=total damage to plant; 0=no damage to plant); for pest or weed control at 62.5 g/ha: 62.5 g ai/ha, 100=total damage to plant, 0=no damage to plant, read-out: Pigweed, Redroot damage rating; for pest or weed control at 250 g/ha: 250 g ai/ha
Method in brief: as §1

[6] = system: velvetleaf (Abutilon theophrasti); test: Test G Pre-Emergence Protocol; details: Abutilon theophrasti, pre-emergence, 312 h, evaluated after 13 days; for pest or weed control at 15.625 g/ha: 15.625 g ai/ha; for pest or weed control at 15.625 g/ha / pest or weed control at 250 g/ha: read-out: Velvetleaf damage rating (100=total damage to plant; 0=no damage to plant); for pest or weed control at 62.5 g/ha: 62.5 g ai/ha, 100=total damage to plant, 0=no damage to plant, read-out: Velvetleaf damage rating; for pest or weed control at 250 g/ha: 250 g ai/ha
Method in brief: as §1

corn (Zea mays) [7] = test: Test G Post-Emergence Protocol; details: Zea mays, post-emergence, 312 h, read-out: Corn damage rating; for plant injury at 15.625 g/ha: 15.625 g ai/ha, evaluated after 13 days (100=total damage to plant; 0=no damage to plant); for plant injury at 62.5 g/ha: 62.5 g ai/ha; for plant injury at 62.5 g/ha / plant injury at 250 g/ha: evaluated after 13 days, 100=total damage to plant, 0=no damage to plant; for plant injury at 250 g/ha: 250 g ai/ha
Method in brief: (§2)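 Pot-grown seedlings, 8 days old, raised in a glasshouse at 24/16 °C day/night with 14 h light and 65% humidity, were sprayed post-emergence with test compound in acetone/water (50:50) plus 0.5% Tween 20 at 15.625, 62.5 or 250 g/ha. Damage was scored visually 13 days later on a 0–100 scale (100 = total damage).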

[8] = system: giant foxtail (Setaria faberi); test: Test G Post-Emergence Protocol; details: Setaria faberi, post-emergence, 312 h, read-out: Foxtail, Giant damage rating; for pest or weed control at 15.625 g/ha: 15.625 g ai/ha, evaluated after 13 days (100=total damage to plant; 0=no damage to plant); for pest or weed control at 62.5 g/ha: 62.5 g ai/ha; for pest or weed control at 62.5 g/ha / pest or weed control at 250 g/ha: evaluated after 13 days, 100=total damage to plant, 0=no damage to plant; for pest or weed control at 250 g/ha: 250 g ai/ha
Method in brief: as §2

[9] = system: ivy-leaved morning glory (Ipomoea hederacea); test: Test G Post-Emergence Protocol; details: Ipomoea, post-emergence, 312 h, read-out: Morningglory, Ivy-leaved damage rating; for pest or weed control at 15.625 g/ha: 15.625 g ai/ha, evaluated after 13 days (100=total damage to plant; 0=no damage to plant); for pest or weed control at 62.5 g/ha: 62.5 g ai/ha; for pest or weed control at 62.5 g/ha / pest or weed control at 250 g/ha: evaluated after 13 days, 100=total damage to plant, 0=no damage to plant; for pest or weed control at 250 g/ha: 250 g ai/ha
Method in brief: as §2

[10] = system: barnyardgrass (Echinochloa crus-galli); test: Test G Post-Emergence Protocol; details: Echinochloa crus-galli, post-emergence, 312 h, read-out: Barnyardgrass damage rating; for pest or weed control at 15.625 g/ha: 15.625 g ai/ha, evaluated after 13 days (100=total damage to plant; 0=no damage to plant); for pest or weed control at 62.5 g/ha: 62.5 g ai/ha; for pest or weed control at 62.5 g/ha / pest or weed control at 250 g/ha: evaluated after 13 days, 100=total damage to plant, 0=no damage to plant; for pest or weed control at 250 g/ha: 250 g ai/ha
Method in brief: as §2

[11] = system: redroot pigweed (Amaranthus retroflexus); test: Test G Post-Emergence Protocol; details: Amaranthus retroflexus, post-emergence, 312 h, read-out: Pigweed, Redroot damage rating; for pest or weed control at 15.625 g/ha: 15.625 g ai/ha, evaluated after 13 days (100=total damage to plant; 0=no damage to plant); for pest or weed control at 62.5 g/ha: 62.5 g ai/ha; for pest or weed control at 62.5 g/ha / pest or weed control at 250 g/ha: evaluated after 13 days, 100=total damage to plant, 0=no damage to plant; for pest or weed control at 250 g/ha: 250 g ai/ha
Method in brief: as §2

[12] = system: velvetleaf (Abutilon theophrasti); test: Test G Post-Emergence Protocol; details: Abutilon theophrasti, post-emergence, 312 h, read-out: Velvetleaf damage rating; for pest or weed control at 15.625 g/ha: 15.625 g ai/ha, evaluated after 13 days (100=total damage to plant; 0=no damage to plant); for pest or weed control at 62.5 g/ha: 62.5 g ai/ha; for pest or weed control at 62.5 g/ha / pest or weed control at 250 g/ha: evaluated after 13 days, 100=total damage to plant, 0=no damage to plant; for pest or weed control at 250 g/ha: 250 g ai/ha
Method in brief: as §2

SMILES | plant injury at 15.625 g/ha (corn (Zea mays) [1]) [%] | plant injury at 62.5 g/ha (corn (Zea mays) [1]) [%] | plant injury at 250 g/ha (corn (Zea mays) [1]) [%] | pest or weed control at 15.625 g/ha [2] [%] | pest or weed control at 62.5 g/ha [2] [%] | pest or weed control at 250 g/ha [2] [%] | pest or weed control at 15.625 g/ha [3] [%] | pest or weed control at 62.5 g/ha [3] [%] | pest or weed control at 250 g/ha [3] [%] | pest or weed control at 15.625 g/ha [4] [%] | pest or weed control at 62.5 g/ha [4] [%] | pest or weed control at 250 g/ha [4] [%] | pest or weed control at 15.625 g/ha [5] [%] | pest or weed control at 62.5 g/ha [5] [%] | pest or weed control at 250 g/ha [5] [%] | pest or weed control at 15.625 g/ha [6] [%] | pest or weed control at 62.5 g/ha [6] [%] | pest or weed control at 250 g/ha [6] [%] | plant injury at 15.625 g/ha (corn (Zea mays) [7]) [%] | plant injury at 62.5 g/ha (corn (Zea mays) [7]) [%] | other results
CN1C[C@H](c2ccc(C(F)(F)F)cc2)[C@@H](C(=O)Nc2cnccc2[N+](=O)[O-])C1=O (racemic) [Compound 1729] | 0 | 0 | 0 | 0 | 0 | 0 | 0 | 0 | 0 | 0 | 0 | 0 | 0 | 0 | 0 | 0 | 0 | 0 | 0 | 0 | plant injury at 250 g/ha (corn (Zea mays) [7]): 0%; pest or weed control at 15.625 g/ha [8]: 0%; pest or weed control at 62.5 g/ha [8]: 0%; pest or weed control at 250 g/ha [8]: 0%; pest or weed control at 15.625 g/ha [9]: 0%; pest or weed control at 62.5 g/ha [9]: 0%; pest or weed control at 250 g/ha [9]: 0%; pest or weed control at 15.625 g/ha [10]: 0%; pest or weed control at 62.5 g/ha [10]: 0%; pest or weed control at 250 g/ha [10]: 0%; pest or weed control at 15.625 g/ha [11]: 0%; pest or weed control at 62.5 g/ha [11]: 0%; pest or weed control at 250 g/ha [11]: 0%; pest or weed control at 15.625 g/ha [12]: 0%; pest or weed control at 62.5 g/ha [12]: 0%; pest or weed control at 250 g/ha [12]: 0%
CC(C)OC(=O)c1cc([C@H]2CN(C)C(=O)[C@@H]2C(=O)Nc2ccccc2F)ccc1F (racemic) [Compound 1730] | 0 | 0 | 0 | 20 | 50 | 90 | 0 | 0 | 0 | 0 | 10 | 70 | 0 | 0 | 0 | 0 | 0 | 0 | 0 | 0 | plant injury at 250 g/ha (corn (Zea mays) [7]): 0%; pest or weed control at 15.625 g/ha [8]: 0%; pest or weed control at 62.5 g/ha [8]: 20%; pest or weed control at 250 g/ha [8]: 80%; pest or weed control at 15.625 g/ha [9]: 0%; pest or weed control at 62.5 g/ha [9]: 0%; pest or weed control at 250 g/ha [9]: 0%; pest or weed control at 15.625 g/ha [10]: 0%; pest or weed control at 62.5 g/ha [10]: 40%; pest or weed control at 250 g/ha [10]: 80%; pest or weed control at 15.625 g/ha [11]: 0%; pest or weed control at 62.5 g/ha [11]: 0%; pest or weed control at 250 g/ha [11]: 0%; pest or weed control at 15.625 g/ha [12]: 0%; pest or weed control at 62.5 g/ha [12]: 0%; pest or weed control at 250 g/ha [12]: 0%
CN1C[C@H](c2ccc(C(F)(F)F)cc2)[C@@H](C(=O)Nc2cc(C#N)ccn2)C1=O (racemic) [Compound 1734] | 0 | 0 | 0 | 0 | 0 | 10 | 0 | 0 | 0 | 0 | 0 | 0 | 0 | 0 | 0 | 0 | 0 | 0 | 0 | 0 | plant injury at 250 g/ha (corn (Zea mays) [7]): 0%; pest or weed control at 15.625 g/ha [8]: 0%; pest or weed control at 62.5 g/ha [8]: 0%; pest or weed control at 250 g/ha [8]: 0%; pest or weed control at 15.625 g/ha [9]: 0%; pest or weed control at 62.5 g/ha [9]: 0%; pest or weed control at 250 g/ha [9]: 0%; pest or weed control at 15.625 g/ha [10]: 0%; pest or weed control at 62.5 g/ha [10]: 0%; pest or weed control at 250 g/ha [10]: 0%; pest or weed control at 15.625 g/ha [11]: 0%; pest or weed control at 62.5 g/ha [11]: 0%; pest or weed control at 250 g/ha [11]: 0%; pest or weed control at 15.625 g/ha [12]: 0%; pest or weed control at 62.5 g/ha [12]: 0%; pest or weed control at 250 g/ha [12]: 0%
